Source: patent US20230117034A1, “PYRAZOLOTRIAZINES” (Bayer Aktiengesellschaft, priority 2019, published 2023)

Key:
CDK2/CycE = molecular target: T1, CDK2/CycE (Homo sapiens, UniProt P24941); test: CDK2/CycE kinase assay (TR-FRET, 2 mM ATP); format: biochemical; details: 2 mM ATP (high ATP); median; read-out: CDK2/CyclinE, 2 mM ATP (high ATP), IC50 (median)
T1 construct: purchased ProQinase GmbH (Freiburg, Germany); host or cells: insect cells (Sf9)
Procedure, shortened: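 GST-tagged human CDK2 and CycE from Sf9 cells, about 10 ng/ml, pre-incubated 15 min at 22 °C with compound in Tris/HCl pH 8.0 buffer. Reaction with 2 mM ATP and 0.75 µM biotinylated peptide for 25 min at 22 °C. Phospho-RB antibody TR-FRET (665/620 nm ratio) read after 1 h; data normalised to no-inhibitor and no-enzyme controls.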

[1] = molecular target: T2, CDK12 (nuclear staining in CAL-120 cells) (Homo sapiens, UniProt Q9NYV4); test: CDK12 nuclear protein level: immunofluorescence/high content analysis (CAL-120); format: cell-based; details: for DC50: CAL-120 cells, 24 h, immunofluorescence, 50% reduction of nuclear CDK12 staining intensity, median, read-out: CDK12 degradation IF, DC50- [mol/l] (median); for (IC50 CDK12 high ATP) to (Degradation DC50 CDK12) ratio: ratio of IC50 CDK12 high ATP kinase assay to DC50 CDK12 degradation (IF, CAL-120)
T2 construct: endogenous in cells; host or cells: CAL-120 human breast cancer cells (DSMZ ACC 459)
T2 sequence (Q9NYV4 whole entry): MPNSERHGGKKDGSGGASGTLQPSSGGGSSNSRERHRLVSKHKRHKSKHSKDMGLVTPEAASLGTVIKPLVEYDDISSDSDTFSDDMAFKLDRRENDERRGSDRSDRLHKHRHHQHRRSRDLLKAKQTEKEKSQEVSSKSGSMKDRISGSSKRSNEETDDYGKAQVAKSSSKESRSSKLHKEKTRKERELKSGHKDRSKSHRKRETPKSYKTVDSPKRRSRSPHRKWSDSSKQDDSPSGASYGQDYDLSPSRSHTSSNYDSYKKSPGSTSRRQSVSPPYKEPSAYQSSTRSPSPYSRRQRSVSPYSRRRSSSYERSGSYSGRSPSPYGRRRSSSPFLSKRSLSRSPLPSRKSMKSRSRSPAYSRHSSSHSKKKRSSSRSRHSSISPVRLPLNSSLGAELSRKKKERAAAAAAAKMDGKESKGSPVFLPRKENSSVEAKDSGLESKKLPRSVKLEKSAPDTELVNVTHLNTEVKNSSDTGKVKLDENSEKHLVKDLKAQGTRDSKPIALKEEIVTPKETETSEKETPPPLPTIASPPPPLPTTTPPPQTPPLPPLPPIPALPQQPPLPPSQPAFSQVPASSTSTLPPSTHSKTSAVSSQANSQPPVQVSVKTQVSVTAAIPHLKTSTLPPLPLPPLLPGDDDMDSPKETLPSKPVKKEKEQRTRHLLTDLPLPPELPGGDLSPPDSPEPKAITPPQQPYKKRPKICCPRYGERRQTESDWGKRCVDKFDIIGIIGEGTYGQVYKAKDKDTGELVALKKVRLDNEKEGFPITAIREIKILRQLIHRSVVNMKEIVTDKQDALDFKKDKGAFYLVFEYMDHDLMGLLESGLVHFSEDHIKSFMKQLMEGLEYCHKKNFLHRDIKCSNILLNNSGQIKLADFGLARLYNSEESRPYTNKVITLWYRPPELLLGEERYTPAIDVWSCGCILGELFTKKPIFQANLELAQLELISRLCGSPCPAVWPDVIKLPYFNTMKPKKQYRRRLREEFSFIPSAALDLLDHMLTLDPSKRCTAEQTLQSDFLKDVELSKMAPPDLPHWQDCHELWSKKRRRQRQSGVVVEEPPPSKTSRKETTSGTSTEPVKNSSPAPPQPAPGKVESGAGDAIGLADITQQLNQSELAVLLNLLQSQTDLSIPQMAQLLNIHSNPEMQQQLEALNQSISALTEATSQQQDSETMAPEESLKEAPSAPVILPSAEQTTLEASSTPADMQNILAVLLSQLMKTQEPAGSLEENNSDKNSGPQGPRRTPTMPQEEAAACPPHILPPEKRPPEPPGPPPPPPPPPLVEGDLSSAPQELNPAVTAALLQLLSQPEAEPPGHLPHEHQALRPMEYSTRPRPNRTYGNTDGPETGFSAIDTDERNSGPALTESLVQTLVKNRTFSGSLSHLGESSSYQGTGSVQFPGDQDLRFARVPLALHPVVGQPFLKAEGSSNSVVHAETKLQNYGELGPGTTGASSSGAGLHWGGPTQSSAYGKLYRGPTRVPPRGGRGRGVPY
T2 sequence (O75909 whole entry partner): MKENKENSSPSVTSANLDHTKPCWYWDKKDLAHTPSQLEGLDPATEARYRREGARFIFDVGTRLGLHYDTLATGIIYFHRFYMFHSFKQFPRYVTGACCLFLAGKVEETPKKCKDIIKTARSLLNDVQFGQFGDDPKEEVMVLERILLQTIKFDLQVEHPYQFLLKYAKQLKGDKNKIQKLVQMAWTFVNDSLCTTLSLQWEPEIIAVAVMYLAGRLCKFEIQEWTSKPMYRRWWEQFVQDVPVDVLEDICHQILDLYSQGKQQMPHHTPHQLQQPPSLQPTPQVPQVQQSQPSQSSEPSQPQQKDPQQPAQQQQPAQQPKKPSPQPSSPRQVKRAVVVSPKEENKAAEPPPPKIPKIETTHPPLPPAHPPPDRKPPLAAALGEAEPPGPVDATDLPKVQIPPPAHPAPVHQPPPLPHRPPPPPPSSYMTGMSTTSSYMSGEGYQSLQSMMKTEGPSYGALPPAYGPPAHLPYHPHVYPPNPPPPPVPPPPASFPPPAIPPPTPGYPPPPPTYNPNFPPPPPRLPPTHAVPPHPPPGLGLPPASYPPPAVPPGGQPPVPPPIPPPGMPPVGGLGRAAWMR
Procedure, shortened: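 CAL-120 cells were treated with compound for 24 h at 37 °C, fixed with PFA and immunostained for CDK12. Nuclear CDK12 intensity was quantified by automated image analysis and normalized to DMSO and control. DC50 is the concentration giving 50% reduction of nuclear staining.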

[2] = molecular target: T3, CYCLIN K (nuclear staining in CAL-120 cells) (Homo sapiens, UniProt O75909); test: CYCLIN K nuclear protein level: immunofluorescence high content analysis (CAL-120); format: cell-based; details: 24 h, 50% reduction of nuclear CCNK staining intensity, median, read-out: CYCLIN K degradation IF, DC50-[mol/l] (median)
T3 construct: endogenous in cells; host or cells: CAL-120 human breast cancer cells (DSMZ ACC 459)
T3 sequence (O75909 whole entry): as the sequence (O75909 whole entry partner) above
T3 sequence (Q9NYV4 whole entry partner): as the sequence (Q9NYV4 whole entry) above
Procedure, shortened: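 CAL-120 breast cancer cells treated in dose-response for 24 h at 37 °C, PFA-fixed and immunostained for cyclin K with Hoechst counterstain. Confocal imaging quantified nuclear intensity; DC50 is the concentration giving 50% reduction of nuclear CCNK staining, normalized to DMSO and control.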

In the case of CN1CCN(c2nc(NCc3nc4cc(C(F)(F)F)ccc4[nH]3)n3ncc(C4CC4)c3n2)CC1 [Example 313, 8-cyclopropyl-2-(4-methylpiperazin-1-yl)-N-{[5-(trifluoromethyl)-1H-benzimidazol-2-yl]methyl}pyrazolo[1,5-a][1,3,5]triazin-4-amine], the IC50 (CDK2/CycE) is reported as over 20000 nM, the DC50 [1] is reported as 26.8 nM and the “(IC50 CDK12 high ATP) to (Degradation DC50 CDK12) ratio” value [1] is reported as 679. It also gave a DC50 [2] of 1.57 nM.

For OC[C@@H]1CCCCN1c1nc(NCc2nnc(-c3ccccc3)[nH]2)n2ncc(Br)c2n1 [Example 70, [(2S)-1-(8-bromo-4-{[(5-phenyl-4H-1,2,4-triazol-3-yl)methyl]amino}pyrazolo[1,5-a][1,3,5]triazin-2-yl)piperidin-2-yl]methanol], the IC50 (CDK2/CycE) was 1540 nM, the DC50 [1] was 7.9 nM and the “(IC50 CDK12 high ATP) to (Degradation DC50 CDK12) ratio” value [1] was 79. It also gave a DC50 [2] of 11.7 nM.

For c1ccc(-c2nnc(CNc3nc(N4CCOCC4)nc4c(C5CC5)cnn34)[nH]2)cc1 [Example 93, 8-cyclopropyl-2-(morpholin-4-yl)-N-[(5-phenyl-4H-1,2,4-triazol-3-yl)methyl]pyrazolo[1,5-a][1,3,5]triazin-4-amine], the IC50 (CDK2/CycE) was 10500 nM, the DC50 [1] was 23.3 nM and the “(IC50 CDK12 high ATP) to (Degradation DC50 CDK12) ratio” value [1] was 116. The DC50 [2] was 17.3 nM.

c1ccc2[nH]c(CNc3nc(N4CCOCC4)nc4c(C5CC5)cnn34)nc2c1 [Example 92, N-[(1H-benzimidazol-2-yl)methyl]-8-cyclopropyl-2-(morpholin-4-yl)pyrazolo[1,5-a][1,3,5]triazin-4-amine] was tested, and the IC50 (CDK2/CycE) was 15600 nM, the DC50 [1] was 2.36 nM and the “(IC50 CDK12 high ATP) to (Degradation DC50 CDK12) ratio” value [1] was 1378. It also gave a DC50 [2] of 0.381 nM.

With Clc1cccc(-c2cnc(CNc3nc(N4CCOCC4)nc4c(Br)cnn34)[nH]2)c1 [Example 81, 8-bromo-N-{[5-(3-chlorophenyl)-1H-imidazol-2-yl]methyl}-2-(morpholin-4-yl)pyrazolo[1,5-a][1,3,5]triazin-4-amine] the IC50 (CDK2/CycE) was 4030 nM, the DC50 [1] was 5.31 nM and the “(IC50 CDK12 high ATP) to (Degradation DC50 CDK12) ratio” value [1] was 144. The DC50 [2] was 3.87 nM.

Cc1ccccc1-c1cnc(CNc2nc(N3CCOCC3)nc3c(Br)cnn23)[nH]1 [Example 85, 8-bromo-N-{[5-(2-methylphenyl)-1H-imidazol-2-yl]methyl}-2-(morpholin-4-yl)pyrazolo[1,5-a][1,3,5]triazin-4-amine] was tested, and the IC50 (CDK2/CycE) was 4520 nM, the DC50 [1] was 5.57 nM and the “(IC50 CDK12 high ATP) to (Degradation DC50 CDK12) ratio” value [1] was 1137. For the same compound, the DC50 [2] was 1.2 nM.

With CCc1cnn2c(NCc3nc4c(F)c(F)ccc4[nH]3)nc(N3CCN(C)CC3)nc12.O=CO [Example 435, formic acid N-[(4,5-difluoro-1H-benzimidazol-2-yl)methyl]-8-ethyl-2-(4-methylpiperazin-1-yl)pyrazolo[1,5-a][1,3,5]triazin-4-amine] the IC50 (CDK2/CycE) was 5000 nM, the DC50 [1] was 0.591 nM and the “(IC50 CDK12 high ATP) to (Degradation DC50 CDK12) ratio” value [1] was 9674. It also gave a DC50 [2] of 0.274 nM.

COC1CCN(c2nc(NCc3nc4ccccc4[nH]3)n3ncc(Br)c3n2)CC1 [Example 62, N-[(1H-benzimidazol-2-yl)methyl]-8-bromo-2-(4-methoxypiperidin-1-yl)pyrazolo[1,5-a][1,3,5]triazin-4-amine] was tested, and the IC50 (CDK2/CycE) was 6450 nM, the DC50 [1] was 10 nM and the “(IC50 CDK12 high ATP) to (Degradation DC50 CDK12) ratio” value [1] was 569. It also gave a DC50 [2] of 2.27 nM.

Fc1ccc(-c2cnc(CNc3nc(N4CCOCC4)nc4c(Br)cnn34)[nH]2)cc1 [Example 66, 8-bromo-N-{[5-(4-fluorophenyl)-1H-imidazol-2-yl]methyl}-2-(morpholin-4-yl)pyrazolo[1,5-a][1,3,5]triazin-4-amine] was tested, and the IC50 (CDK2/CycE) was 2300 nM, the DC50 [1] was 130 nM and the “(IC50 CDK12 high ATP) to (Degradation DC50 CDK12) ratio” value [1] was over 44. For the same compound, the DC50 [2] was 2.45 nM.

In the case of COC(=O)C1CCN(c2nc(NCc3nc4ccccc4[nH]3)n3ncc(Br)c3n2)CC1 [Example 63, methyl 1-(4-{[(1H-benzimidazol-2-yl)methyl]amino}-8-bromopyrazolo[1,5-a][1,3,5]triazin-2-yl)piperidine-4-carboxylate], the IC50 (CDK2/CycE) is reported as 6490 nM, the DC50 [1] is reported as 20.7 nM and the “(IC50 CDK12 high ATP) to (Degradation DC50 CDK12) ratio” value [1] is reported as 556. For the same compound, the DC50 [2] was 4.09 nM.

Work on FC(F)(F)Oc1ccccc1-c1nnc(CNc2nc(N3CCOCC3)nc3c(Br)cnn23)[nH]1 [Example 74, 8-bromo-2-(morpholin-4-yl)-N-({5-[2-(trifluoromethoxy)phenyl]-4H-1,2,4-triazol-3-yl}methyl)pyrazolo[1,5-a][1,3,5]triazin-4-amine] yielded an IC50 (CDK2/CycE) of 18200 nM and a DC50 [1] of 57.4 nM.

In the case of CC1(C)CN(c2nc(NCc3nnc(-c4ccccc4)[nH]3)n3ncc(Br)c3n2)CCO1 [Example 68, 8-bromo-2-(2,2-dimethylmorpholin-4-yl)-N-[(5-phenyl-4H-1,2,4-triazol-3-yl)methyl]pyrazolo[1,5-a][1,3,5]triazin-4-amine], the IC50 (CDK2/CycE) is reported as 10600 nM, the DC50 [1] is reported as 13.3 nM and the “(IC50 CDK12 high ATP) to (Degradation DC50 CDK12) ratio” value [1] is reported as 415. It also gave a DC50 [2] of 2.85 nM.

For CC(C)c1cnn2c(NCc3nc4ccccc4[nH]3)nc(N3CCOC(C)(C)C3)nc12 [Example 12, N-[(1H-benzimidazol-2-yl)methyl]-2-(2,2-dimethylmorpholin-4-yl)-8-(propan-2-yl)pyrazolo[1,5-a][1,3,5]triazin-4-amine], the IC50 (CDK2/CycE) was over 16500 nM, the DC50 [1] was 42.7 nM and the “(IC50 CDK12 high ATP) to (Degradation DC50 CDK12) ratio” value [1] was 399.

COC(=O)C1CCN(c2nc(NCc3nnc(-c4ccccc4)[nH]3)n3ncc(Br)c3n2)CC1 [Example 77, methyl 1-(8-bromo-4-{[(5-phenyl-4H-1,2,4-triazol-3-yl)methyl]amino}pyrazolo[1,5-a][1,3,5]triazin-2-yl)piperidine-4-carboxylate] was tested, and the IC50 (CDK2/CycE) was 11100 nM, the DC50 [1] was 116 nM and the “(IC50 CDK12 high ATP) to (Degradation DC50 CDK12) ratio” value [1] was 87.

With O[C@@H]1CCN(c2nc(NCc3nc4ccccc4[nH]3)n3ncc(Br)c3n2)C1 [Example 202, (3R)-1-(4-{[(1H-benzimidazol-2-yl)methyl]amino}-8-bromopyrazolo[1,5-a][1,3,5]triazin-2-yl)pyrrolidin-3-ol] the IC50 (CDK2/CycE) was 10500 nM, the DC50 [1] was 31.8 nM and the “(IC50 CDK12 high ATP) to (Degradation DC50 CDK12) ratio” value [1] was 518.

For CC(C)c1cnn2c(NCc3nc4ccccc4[nH]3)nc(N(C)C)nc12 [Example 3, N^4-[(1H-benzimidazol-2-yl)methyl]-N^2,N^2-dimethyl-8-(propan-2-yl)pyrazolo[1,5-a][1,3,5]triazine-2,4-diamine], the IC50 (CDK2/CycE) was over 20000 nM, the DC50 [1] was 94.5 nM and the “(IC50 CDK12 high ATP) to (Degradation DC50 CDK12) ratio” value [1] was over 212.

With Fc1ccc2[nH]c(CNc3nc(N4CCOCC4)nc4c(-c5cnn(C(F)F)c5)cnn34)nc2c1F [Example 422, N-[(4,5-difluoro-1H-benzimidazol-2-yl)methyl]-8-[1-(difluoromethyl)-1H-pyrazol-4-yl]-2-(morpholin-4-yl)pyrazolo[1,5-a][1,3,5]triazin-4-amine] the IC50 (CDK2/CycE) was over 20000 nM, the DC50 [1] was 6.81 nM and the “(IC50 CDK12 high ATP) to (Degradation DC50 CDK12) ratio” value [1] was 239.

Clc1ccccc1-c1nnc(CNc2nc(N3CCOCC3)nc3c(Br)cnn23)[nH]1 [Example 69, 8-bromo-N-{[5-(2-chlorophenyl)-4H-1,2,4-triazol-3-yl]methyl}-2-(morpholin-4-yl)pyrazolo[1,5-a][1,3,5]triazin-4-amine] was tested, and the IC50 (CDK2/CycE) was 12100 nM, the DC50 [1] was 84.5 nM and the “(IC50 CDK12 high ATP) to (Degradation DC50 CDK12) ratio” value [1] was over 68.

CN1CCN(c2nc(NCc3nc4cc(Cl)c(Cl)cc4[nH]3)n3ncc(C4CC4)c3n2)CC1 [Example 305, 8-cyclopropyl-N-[(5,6-dichloro-1H-benzimidazol-2-yl)methyl]-2-(4-methylpiperazin-1-yl)pyrazolo[1,5-a][1,3,5]triazin-4-amine] gave an IC50 (CDK2/CycE) of over 20000 nM and a DC50 [2] of 0.972 nM.
